Test results: ChEMBL document CHEMBL1201862, “PubChem BioAssay data set” (2004)
Blank lines part the entries; values can stand above or below the compound they belong to. Calls of active or inactive are those of the source.

What was measured:
[1] = biological target: Glyceraldehyde-3-phosphate dehydrogenase (Homo sapiens, UniProt P04406)
[2] = biological target: T1, Dual specificity protein phosphatase 6 (Rattus norvegicus, UniProt Q64346); type: functional
T1 sequence (Q64346 whole entry): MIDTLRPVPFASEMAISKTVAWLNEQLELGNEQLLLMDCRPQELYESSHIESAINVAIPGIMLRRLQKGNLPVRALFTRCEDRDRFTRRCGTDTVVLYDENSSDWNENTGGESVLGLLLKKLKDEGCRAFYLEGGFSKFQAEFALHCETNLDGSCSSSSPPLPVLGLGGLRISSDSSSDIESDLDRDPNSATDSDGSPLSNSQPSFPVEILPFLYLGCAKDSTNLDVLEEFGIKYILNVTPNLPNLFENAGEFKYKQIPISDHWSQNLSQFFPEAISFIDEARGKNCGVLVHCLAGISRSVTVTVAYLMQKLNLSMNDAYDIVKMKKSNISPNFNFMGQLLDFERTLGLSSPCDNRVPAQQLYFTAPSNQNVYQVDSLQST

[3] = biological target: T1, Dual specificity protein phosphatase 6
[4] = biological target: T2, Tyrosine-protein phosphatase non-receptor type 7 (Homo sapiens, UniProt P35236); type: functional
T2 sequence (P35236 whole entry): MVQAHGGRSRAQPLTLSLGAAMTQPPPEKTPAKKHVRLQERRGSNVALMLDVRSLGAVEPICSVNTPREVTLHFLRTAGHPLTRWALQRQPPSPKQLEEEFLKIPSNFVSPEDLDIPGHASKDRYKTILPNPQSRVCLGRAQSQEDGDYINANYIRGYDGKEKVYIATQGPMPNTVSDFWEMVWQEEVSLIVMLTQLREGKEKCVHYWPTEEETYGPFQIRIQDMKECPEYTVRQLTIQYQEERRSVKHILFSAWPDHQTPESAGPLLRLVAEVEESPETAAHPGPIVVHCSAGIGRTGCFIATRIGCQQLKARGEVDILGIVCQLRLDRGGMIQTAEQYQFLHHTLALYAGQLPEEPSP

Mu-type opioid receptor [5] = biological target: T3, Mu-type opioid receptor (Homo sapiens, UniProt P35372); test: mu opioid receptor blockers – image-based, SAR follow-up (AID 2420); type: functional;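 further: compounds added before stimulation of receptor with agonist DAMGO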
[6] = biological target: T4, Kappa-type opioid receptor (Homo sapiens, UniProt P41145); test: kappa opioid receptor blockers, image-based, SAR follow-up (AID 2348); type: functional
[7] = biological target: T5, Delta-type opioid receptor (Homo sapiens, UniProt P41143); test: DOR agonists, SAR follow-up, image-based (AID 2370); type: functional
[8] = biological target: T4, Kappa-type opioid receptor; test: kappa opioid receptor blockers, cell-based, luminescence, beta-arrestin, SAR follow-up (AID 2285); type: functional
Mu-type opioid receptor [9] = biological target: T3, Mu-type opioid receptor; test: mu opioid receptor activators, image-based, SAR follow-up (AID 2352); type: functional
[10] = biological target: T5, Delta-type opioid receptor; test: delta opioid receptor blockers – image-based, SAR follow-up (AID 2357); type: functional
[11] = biological target: T4, Kappa-type opioid receptor; test: kappa opioid receptor activation potency – imaging, image-based, SAR follow-up (AID 2359); type: functional
[12] = biological target: Peroxisome proliferator-activated receptor gamma/Nuclear receptor coactivator 2 (Homo sapiens, UniProt P37231); test: (§1) TR-FRET dose response biochemical High Throughput Screening assay for agonists of the steroid receptor coactivator 2 (SRC-2) recruitment by the peroxisome proliferator-activated receptor gamma (PPAR gamma): non-selective agonists. [Related pubchem assays: 1297, 1032 ]; type: functional
[13] = biological target: Peroxisome proliferator-activated receptor gamma/Nuclear receptor coactivator 1 (Homo sapiens, UniProt P37231); test: as §1, with “1 (SRC-1)” for “2 (SRC-2)”, “assays (depositor defined):AID1300, AID1808, AID504735, AID631]” for “assays: 1297, 1032 ]”; type: protein assay
[14] = biological target: Peroxisome proliferator-activated receptor gamma/Nuclear receptor corepressor 2 (Homo sapiens, UniProt P37231+Q9Y618); test: Counterscreen for NR2E3 inverse agonists: TR-FRET-based biochemical high throughput dose response assay to identify inverse agonists of the interaction between peroxisome proliferator-activated receptor gamma (PPARg) and nuclear receptor co-repressor 2 (NCOR2).; type: functional
[15] = biological target: Photoreceptor-specific nuclear receptor (Homo sapiens, UniProt Q9Y5X4); test: ligands suppressing NR2E3 nuclear receptor activity – biochemical, TR-FRET, dose response (AID 463256); type: functional
[16] = biological target: Peroxisome proliferator-activated receptor gamma/Nuclear receptor coactivator 3 (Homo sapiens, UniProt P37231); test: as §1, with “3 (SRC-3)” for “2 (SRC-2)”, “1301 (Confirmation screen.), 1048 (Primary screen.)]” for “1297, 1032 ]”; type: functional
Tumor necrosis factor = Tumor necrosis factor (Homo sapiens, UniProt P01375); test: analog potency on TNFa NF-kB signaling – cell-based, revised, SAR follow-up (AID 2337); type: functional
HEK293 = test: cells; settings: Homo sapiens;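 further: cells exposed to compound for 14 hours overnight before viability readout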
[17] = biological target: T6, Nucleotide-binding oligomerization domain-containing protein 1 (Homo sapiens, UniProt Q9Y239); test: blockers of NOD1 pathway activity – revised, SAR follow-up (AID 2333); type: functional
T6 sequence (Q9Y239 whole entry): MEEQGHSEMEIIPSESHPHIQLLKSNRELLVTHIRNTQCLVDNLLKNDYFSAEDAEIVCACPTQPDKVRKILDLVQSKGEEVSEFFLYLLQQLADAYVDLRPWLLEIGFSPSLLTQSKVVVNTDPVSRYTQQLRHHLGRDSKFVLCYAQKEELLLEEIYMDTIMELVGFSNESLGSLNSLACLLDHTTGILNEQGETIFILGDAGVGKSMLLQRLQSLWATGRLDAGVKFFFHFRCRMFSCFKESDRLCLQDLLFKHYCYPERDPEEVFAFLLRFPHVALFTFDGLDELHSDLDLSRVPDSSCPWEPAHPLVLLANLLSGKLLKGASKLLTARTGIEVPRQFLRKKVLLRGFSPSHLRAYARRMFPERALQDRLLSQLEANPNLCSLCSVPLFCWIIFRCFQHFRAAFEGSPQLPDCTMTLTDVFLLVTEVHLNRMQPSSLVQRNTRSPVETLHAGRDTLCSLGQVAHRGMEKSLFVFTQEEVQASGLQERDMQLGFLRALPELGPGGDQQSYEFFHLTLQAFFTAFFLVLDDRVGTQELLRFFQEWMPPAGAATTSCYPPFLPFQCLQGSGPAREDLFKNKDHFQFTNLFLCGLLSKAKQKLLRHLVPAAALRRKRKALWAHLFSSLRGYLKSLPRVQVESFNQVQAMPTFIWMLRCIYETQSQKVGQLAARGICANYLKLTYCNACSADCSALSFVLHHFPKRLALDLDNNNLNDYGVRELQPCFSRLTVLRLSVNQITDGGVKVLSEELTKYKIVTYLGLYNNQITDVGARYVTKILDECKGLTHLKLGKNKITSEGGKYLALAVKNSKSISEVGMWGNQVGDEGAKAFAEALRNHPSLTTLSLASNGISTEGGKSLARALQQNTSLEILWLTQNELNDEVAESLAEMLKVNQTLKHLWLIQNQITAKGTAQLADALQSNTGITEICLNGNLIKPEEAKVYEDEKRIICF

T4 sequence (P41145 whole entry): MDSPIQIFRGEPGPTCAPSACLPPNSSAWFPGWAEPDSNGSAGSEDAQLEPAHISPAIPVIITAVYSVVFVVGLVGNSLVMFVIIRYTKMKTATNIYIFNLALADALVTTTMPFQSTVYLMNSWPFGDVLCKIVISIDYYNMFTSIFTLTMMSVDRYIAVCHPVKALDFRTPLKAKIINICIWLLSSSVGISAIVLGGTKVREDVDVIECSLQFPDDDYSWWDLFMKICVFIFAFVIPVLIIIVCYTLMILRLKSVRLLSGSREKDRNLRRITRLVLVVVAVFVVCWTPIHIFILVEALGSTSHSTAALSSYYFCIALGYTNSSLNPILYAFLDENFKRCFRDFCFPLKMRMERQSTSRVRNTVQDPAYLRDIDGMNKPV
T3 sequence (P35372 whole entry): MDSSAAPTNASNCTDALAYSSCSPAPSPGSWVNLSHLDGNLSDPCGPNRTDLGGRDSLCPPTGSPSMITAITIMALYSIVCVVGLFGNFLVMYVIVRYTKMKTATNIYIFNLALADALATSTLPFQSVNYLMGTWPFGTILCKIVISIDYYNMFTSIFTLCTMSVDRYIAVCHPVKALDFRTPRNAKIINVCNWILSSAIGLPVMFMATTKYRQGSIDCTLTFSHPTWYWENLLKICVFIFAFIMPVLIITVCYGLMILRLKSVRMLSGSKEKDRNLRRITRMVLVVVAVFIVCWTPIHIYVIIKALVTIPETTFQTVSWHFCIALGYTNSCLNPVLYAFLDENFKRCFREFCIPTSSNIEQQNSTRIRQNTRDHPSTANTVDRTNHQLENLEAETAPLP
T5 sequence (P41143 whole entry): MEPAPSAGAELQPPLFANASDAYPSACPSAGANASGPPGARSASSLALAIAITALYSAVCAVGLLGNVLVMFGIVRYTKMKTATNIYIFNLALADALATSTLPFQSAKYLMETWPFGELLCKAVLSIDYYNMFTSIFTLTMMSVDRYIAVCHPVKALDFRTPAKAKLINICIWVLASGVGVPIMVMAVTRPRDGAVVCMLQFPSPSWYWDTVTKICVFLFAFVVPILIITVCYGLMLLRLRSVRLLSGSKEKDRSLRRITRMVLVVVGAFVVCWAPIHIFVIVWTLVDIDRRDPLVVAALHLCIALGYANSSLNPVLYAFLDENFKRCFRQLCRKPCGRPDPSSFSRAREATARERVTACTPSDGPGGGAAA
Sequence of Photoreceptor-specific nuclear receptor (Q9Y5X4 whole entry): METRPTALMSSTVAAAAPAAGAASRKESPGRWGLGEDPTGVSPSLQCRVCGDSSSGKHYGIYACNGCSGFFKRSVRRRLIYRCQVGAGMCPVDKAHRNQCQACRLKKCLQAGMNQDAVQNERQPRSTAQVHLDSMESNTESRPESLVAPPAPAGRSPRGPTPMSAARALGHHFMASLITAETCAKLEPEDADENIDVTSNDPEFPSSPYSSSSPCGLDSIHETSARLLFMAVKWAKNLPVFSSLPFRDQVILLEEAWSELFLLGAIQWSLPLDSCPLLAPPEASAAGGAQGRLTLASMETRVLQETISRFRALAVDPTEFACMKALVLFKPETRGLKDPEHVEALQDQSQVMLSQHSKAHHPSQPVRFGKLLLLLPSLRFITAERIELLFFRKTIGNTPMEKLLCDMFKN
Sequence of Tumor necrosis factor (P01375 whole entry): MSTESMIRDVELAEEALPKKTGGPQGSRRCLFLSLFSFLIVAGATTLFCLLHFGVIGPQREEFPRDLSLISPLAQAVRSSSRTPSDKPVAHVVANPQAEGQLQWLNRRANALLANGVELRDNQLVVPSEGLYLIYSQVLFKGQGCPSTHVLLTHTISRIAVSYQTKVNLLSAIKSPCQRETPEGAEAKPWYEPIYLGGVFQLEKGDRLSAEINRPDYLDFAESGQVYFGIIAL
Sequence of Peroxisome proliferator-activated receptor gamma/Nuclear receptor coactivator 3 (P37231 whole entry): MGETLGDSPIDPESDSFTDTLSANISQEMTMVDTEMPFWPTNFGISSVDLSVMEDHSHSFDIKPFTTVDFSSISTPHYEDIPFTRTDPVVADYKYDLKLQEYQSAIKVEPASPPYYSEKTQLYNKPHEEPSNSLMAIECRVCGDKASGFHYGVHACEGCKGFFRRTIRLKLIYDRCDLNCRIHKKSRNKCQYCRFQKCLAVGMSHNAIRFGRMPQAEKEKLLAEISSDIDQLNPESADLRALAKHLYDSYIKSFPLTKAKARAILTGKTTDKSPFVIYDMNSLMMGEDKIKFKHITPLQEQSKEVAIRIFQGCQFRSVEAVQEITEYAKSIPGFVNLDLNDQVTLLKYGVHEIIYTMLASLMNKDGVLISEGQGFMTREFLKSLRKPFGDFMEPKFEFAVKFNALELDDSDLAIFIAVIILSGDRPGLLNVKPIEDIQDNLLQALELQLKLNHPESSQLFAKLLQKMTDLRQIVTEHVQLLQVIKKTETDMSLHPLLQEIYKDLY
Sequence of Peroxisome proliferator-activated receptor gamma/Nuclear receptor coactivator 3 (Q9Y6Q9 whole entry, further chain): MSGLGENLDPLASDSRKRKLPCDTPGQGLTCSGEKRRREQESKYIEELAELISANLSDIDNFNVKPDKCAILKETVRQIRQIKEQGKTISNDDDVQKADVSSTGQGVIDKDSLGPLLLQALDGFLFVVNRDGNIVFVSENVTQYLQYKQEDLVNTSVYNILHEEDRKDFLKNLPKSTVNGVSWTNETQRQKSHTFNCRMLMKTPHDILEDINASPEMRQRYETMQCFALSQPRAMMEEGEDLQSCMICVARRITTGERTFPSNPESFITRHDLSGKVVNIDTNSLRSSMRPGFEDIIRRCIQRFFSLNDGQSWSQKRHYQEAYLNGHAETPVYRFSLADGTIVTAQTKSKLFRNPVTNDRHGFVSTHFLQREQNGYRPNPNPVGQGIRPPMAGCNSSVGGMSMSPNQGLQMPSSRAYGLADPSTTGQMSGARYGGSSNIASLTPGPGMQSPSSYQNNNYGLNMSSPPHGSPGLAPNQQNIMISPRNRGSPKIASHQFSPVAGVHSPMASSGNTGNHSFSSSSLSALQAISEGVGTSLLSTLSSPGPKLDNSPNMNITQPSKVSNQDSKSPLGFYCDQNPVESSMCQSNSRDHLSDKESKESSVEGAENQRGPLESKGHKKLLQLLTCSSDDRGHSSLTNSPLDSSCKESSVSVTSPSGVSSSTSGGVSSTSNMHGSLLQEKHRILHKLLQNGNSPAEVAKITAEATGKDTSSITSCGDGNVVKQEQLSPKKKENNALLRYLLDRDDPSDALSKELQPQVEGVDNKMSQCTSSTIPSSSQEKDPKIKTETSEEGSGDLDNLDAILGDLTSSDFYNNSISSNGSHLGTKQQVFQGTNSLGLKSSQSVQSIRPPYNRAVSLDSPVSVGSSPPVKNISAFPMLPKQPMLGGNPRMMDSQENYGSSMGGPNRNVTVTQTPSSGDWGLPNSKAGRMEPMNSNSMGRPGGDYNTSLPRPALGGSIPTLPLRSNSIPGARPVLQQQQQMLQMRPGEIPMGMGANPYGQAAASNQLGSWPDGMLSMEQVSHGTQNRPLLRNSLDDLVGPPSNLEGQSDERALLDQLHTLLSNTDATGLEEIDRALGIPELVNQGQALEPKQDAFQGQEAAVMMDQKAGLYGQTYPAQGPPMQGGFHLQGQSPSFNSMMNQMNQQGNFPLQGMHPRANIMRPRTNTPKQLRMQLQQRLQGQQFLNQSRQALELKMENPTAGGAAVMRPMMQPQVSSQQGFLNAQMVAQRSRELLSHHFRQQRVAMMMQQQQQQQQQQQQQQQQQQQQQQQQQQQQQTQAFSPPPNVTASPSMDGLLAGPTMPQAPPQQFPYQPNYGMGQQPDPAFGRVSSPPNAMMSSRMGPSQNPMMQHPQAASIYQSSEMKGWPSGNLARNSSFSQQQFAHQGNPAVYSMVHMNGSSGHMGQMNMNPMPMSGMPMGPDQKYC
Sequence of Glyceraldehyde-3-phosphate dehydrogenase (P04406 whole entry): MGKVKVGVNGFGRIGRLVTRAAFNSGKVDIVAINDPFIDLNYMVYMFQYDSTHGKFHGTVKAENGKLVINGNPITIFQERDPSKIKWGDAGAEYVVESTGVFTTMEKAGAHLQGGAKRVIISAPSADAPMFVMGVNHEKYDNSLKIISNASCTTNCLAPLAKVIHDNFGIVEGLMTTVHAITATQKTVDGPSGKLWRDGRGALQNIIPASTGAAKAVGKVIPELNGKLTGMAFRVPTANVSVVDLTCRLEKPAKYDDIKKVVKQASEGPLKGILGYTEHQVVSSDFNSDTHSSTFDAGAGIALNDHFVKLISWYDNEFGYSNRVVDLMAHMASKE

- IC50 [1]: 27.4 µM (active)
- IC50 [2]: > 100 µM (inactive)
- IC50 [3]: > 100 µM (inactive)
- IC50 [4]: > 100 µM (not active)
Compound: O=C(Cc1cccs1)Nc1ccon1

- IC50 (Mu-type opioid receptor [5]): > 32 µM (inactive)
- IC50 [6]: > 32 µM (inactive)
- EC50 [7]: > 32 µM (inactive)
- IC50 [8]: > 10 µM (inactive)
- EC50 (Mu-type opioid receptor [9]): > 32 µM (inactive)
- IC50 [10]: > 32 µM (inactive)
- EC50 [11]: > 32 µM (inactive)
Compound: Cc1ccc(S(=O)(=O)NCc2ccc(C(=O)N3CCN(Cc4ccccc4)CC3)cc2)cc1

- EC50 [12]: 15 µM (not active)
- EC50 [13]: 12.9 µM (inactive)
- IC50 [14]: 18 µM (not active)
- IC50 [15]: 23.2 µM (not active)
- EC50 [16]: > 79.4 µM (not active)
Compound: COc1ccc(-c2cn3c(C)c(C(=O)Nc4cc(NC(C)=O)ccc4OC)sc3n2)cc1

Compound: COC(=O)CC1=NN(c2nc3ccccc3s2)C(=O)/C1=C(/C)Nc1ccc(Cl)cc1
- IC50 (Tumor necrosis factor): 0.0369 µM (active)
- IC50 (HEK293): > 20 µM (inactive)
- IC50 [17]: < 0.0391 µM (active)
